Source: publication PMC7801380, “Development of phenotypic assays for identifying novel blockers of L-type calcium channels in neurons” (Scientific Reports, 2021)
Read-outs that look alike come from different tables or passages of the source.

Experiments:
[1] = tested on: L-type calcium channels (LTCCs); assay: Calcium flux (FLIPR) assay, Bay K8644-induced responses in rat primary cortical cultures; assay type: cell-based; conditions: for Block of Bay K8644-evoked calcium fluorescent response: compound 3 µM
[2] = tested on: LTCC currents; assay: Patch clamp, LTCC currents in rat cortical neurons; assay type: cell-based
[3] = target: CaV1.2 (Homo sapiens, UniProt Q13936); assay: in vitro; conditions: pH 7.4
Sequence of CaV1.2 (Q13936 1-2138 isoform Q13936-12): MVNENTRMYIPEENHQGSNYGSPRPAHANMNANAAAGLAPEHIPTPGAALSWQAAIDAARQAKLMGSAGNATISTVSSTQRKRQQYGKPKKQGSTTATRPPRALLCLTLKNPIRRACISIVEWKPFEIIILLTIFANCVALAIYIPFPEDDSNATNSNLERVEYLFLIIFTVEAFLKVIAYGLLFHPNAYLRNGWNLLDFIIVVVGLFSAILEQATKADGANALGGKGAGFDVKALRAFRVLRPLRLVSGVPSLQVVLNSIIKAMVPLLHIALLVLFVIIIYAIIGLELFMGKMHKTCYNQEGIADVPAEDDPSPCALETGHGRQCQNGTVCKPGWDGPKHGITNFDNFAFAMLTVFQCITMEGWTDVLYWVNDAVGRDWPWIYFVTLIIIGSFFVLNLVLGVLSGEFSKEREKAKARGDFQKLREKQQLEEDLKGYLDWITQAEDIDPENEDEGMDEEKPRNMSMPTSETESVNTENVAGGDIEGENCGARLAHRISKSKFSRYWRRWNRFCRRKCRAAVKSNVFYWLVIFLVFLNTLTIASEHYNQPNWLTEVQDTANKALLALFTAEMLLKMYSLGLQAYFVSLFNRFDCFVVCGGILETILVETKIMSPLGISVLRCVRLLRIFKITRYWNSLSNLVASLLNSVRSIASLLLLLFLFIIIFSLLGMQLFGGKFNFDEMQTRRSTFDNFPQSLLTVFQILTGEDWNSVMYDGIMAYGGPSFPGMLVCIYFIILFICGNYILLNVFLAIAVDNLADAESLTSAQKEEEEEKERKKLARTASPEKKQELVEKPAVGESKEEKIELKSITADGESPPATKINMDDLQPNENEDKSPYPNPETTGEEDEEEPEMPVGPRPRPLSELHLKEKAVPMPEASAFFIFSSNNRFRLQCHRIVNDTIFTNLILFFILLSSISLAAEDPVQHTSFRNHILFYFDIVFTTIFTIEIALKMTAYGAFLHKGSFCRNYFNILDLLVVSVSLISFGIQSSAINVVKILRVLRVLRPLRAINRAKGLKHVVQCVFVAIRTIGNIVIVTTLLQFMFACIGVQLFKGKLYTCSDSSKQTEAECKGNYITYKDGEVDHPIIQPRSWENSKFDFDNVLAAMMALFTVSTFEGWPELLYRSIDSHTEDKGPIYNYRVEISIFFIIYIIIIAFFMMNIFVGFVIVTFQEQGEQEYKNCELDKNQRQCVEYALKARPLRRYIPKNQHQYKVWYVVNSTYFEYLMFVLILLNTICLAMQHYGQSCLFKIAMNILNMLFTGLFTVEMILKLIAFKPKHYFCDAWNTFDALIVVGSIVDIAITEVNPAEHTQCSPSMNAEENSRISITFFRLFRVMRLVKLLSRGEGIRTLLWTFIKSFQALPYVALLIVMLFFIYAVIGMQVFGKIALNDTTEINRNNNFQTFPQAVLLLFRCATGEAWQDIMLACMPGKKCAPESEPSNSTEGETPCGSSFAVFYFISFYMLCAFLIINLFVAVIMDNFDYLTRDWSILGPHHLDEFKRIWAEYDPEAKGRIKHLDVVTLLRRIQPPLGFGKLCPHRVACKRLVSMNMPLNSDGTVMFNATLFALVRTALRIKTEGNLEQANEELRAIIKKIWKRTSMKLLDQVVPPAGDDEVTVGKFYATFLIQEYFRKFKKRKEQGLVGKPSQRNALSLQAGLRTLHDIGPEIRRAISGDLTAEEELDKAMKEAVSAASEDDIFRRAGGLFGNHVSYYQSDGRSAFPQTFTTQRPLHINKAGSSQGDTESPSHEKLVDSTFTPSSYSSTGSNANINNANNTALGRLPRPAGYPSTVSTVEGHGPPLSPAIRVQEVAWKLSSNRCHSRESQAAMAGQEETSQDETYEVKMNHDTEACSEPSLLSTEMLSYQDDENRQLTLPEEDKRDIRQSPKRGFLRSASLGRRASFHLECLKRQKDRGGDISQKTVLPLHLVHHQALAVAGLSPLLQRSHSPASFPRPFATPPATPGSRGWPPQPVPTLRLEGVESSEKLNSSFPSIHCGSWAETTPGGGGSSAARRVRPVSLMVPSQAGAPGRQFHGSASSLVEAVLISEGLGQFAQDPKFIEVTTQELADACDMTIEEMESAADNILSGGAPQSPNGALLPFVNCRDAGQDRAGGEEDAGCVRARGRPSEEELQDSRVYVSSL

[4] = target: Phenylalkylamine site; assay: Rat cortex binding, phenylalkylamine site ([3H]D888); conditions: [3H]D888 3 nM
Method: (§1) The in-vitro binding studies were conducted by Eurofins (France) using rat cortex. […] The IC50 values (the concentration that causes half-maximal inhibition of control specific binding) were determined by non-linear regression analysis of the competition curves using Hill equation: Y = […] Y = specific binding, A = left asymptote of the curve, D = right asymptote of the curve, C = compound concentration, and nH = slope factor. Analyses were performed using software developed at Eurofins (Hill software) and validated by comparison with data generated by the commercial software SigmaPlot 4.0. […] KD values were determined from Scatchard plots.

[5] = target: Benzothiazepine site; assay: Rat cortex binding, benzothiazepine site ([3H]diltiazem); conditions: [3H]diltiazem 15 nM
Method: as §1

[6] = target: DHP site; assay: Rat cortex binding, DHP site ([3H]nitrendipine); conditions: [3H]nitrendipine 0.1 nM
Method: as §1

[7] = tested on: VGCCs; assay: Calcium fluorescent response to high [K+] in rat cortical cultures; assay type: cell-based; conditions: 100 mM K+, compound 3 µM, holding [K+] 20 mM
[8] = PW library screen hit confirmation, 1.1 µM Bay K8644, holding [K+] 20 mM, read-out: FLIPR IC50 Rat cortical culture
[9] = Vhold/Vtest -50/-20 mV, 300 nM Bay K8644
[10] = Vhold/Vtest -50/-20 mV, 300 nM Bay K8644, read-out: IC50, LTCC currents
[11] = 300 nM Bay K8644, holding [K+] 20 mM, read-out: IC50, inhibition of Bay K-induced responses (calcium flux)

SMILES: COC(=O)C1=C(C)NC(C)=C([N+](=O)[O-])C1c1ccccc1C(F)(F)F (centres unmarked) [Bay K8644]
- EC50 ([1]; holding [K+] 20 mM, read-out: EC50, activation of LTCCs (calcium flux)): 0.204 µM
- EC50 ([2]; Vhold -50 mV, Vtest -20 mV, read-out: EC50, Bay K8644 concentration dependence (patch clamp)): 0.0406 µM

SMILES: COC(=O)C1=C(C)NC(C)=C(C(=O)OC2CCCN(Cc3ccccc3)C2)C1c1cccc([N+](=O)[O-])c1 (centres unmarked) [Benidipine]
- IC50 [1, 8]: 0.104 µM

SMILES: CN1CCC(=C2c3ccccc3C=Cc3ccccc32)CC1 [Cyproheptadine]
- % block of LTCC currents ([2]; 3 µM compound, -50/-20 mV, 300 nM Bay K8644): 75.2 ± 9.1%
- inhibition at 3 µM [3]: 52.3 ± 6.1%

SMILES: COc1ccc(CCN(C)CCCC(C#N)(c2cc(OC)c(OC)c(OC)c2)C(C)C)cc1OC (centres unmarked) [D600]
- IC50 ([4]; n = 4, read-out: IC50 positive control, phenylalkylamine site binding): 0.0268 ± 0.0036 µM

SMILES: CCOC(=O)C1=C(C)NC(C)=C(C(=O)OC)C1c1cccc(Cl)c1Cl (centres unmarked) [Felodipine]
- IC50 [1, 8]: 0.057 µM

SMILES: Fc1ccc(C(OCCN2CCN(CCCc3ccccc3)CC2)c2ccc(F)cc2)cc1 [GBR 12909]
- IC50 [1, 8]: 0.68 µM

SMILES: COC(=O)C1=C(C)NC(C)=C(C(=O)OC(C)C)C1c1cccc2nonc12 (centres unmarked) [Isradipine]
- IC50 [1, 8]: 0.008 µM

SMILES: CCOC(=O)C1=C(C)NC(C)=C(C(=O)OCC)C1c1ccccc1/C=C/C(=O)OC(C)(C)C [Lacidipine]
- IC50 [1, 8]: 0.453 µM

SMILES: COC(=O)C1=C(C)NC(C)=C(C(=O)OCCN(C)Cc2ccccc2)C1c1cccc([N+](=O)[O-])c1 (centres unmarked) [Nicardipine]
- IC50 [1, 8]: 0.29 µM

SMILES: O=C(Nc1ccc([N+](=O)[O-])cc1Cl)c1cc(Cl)ccc1O [Niclosamide]
- IC50 ([1]; PW library screen hit confirmation, 1.1 µM Bay K8644, holding [K+] 20 mM, listed as niclosamide, read-out: FLIPR IC50 Rat cortical culture): 0.0795 ± 0.0128 µM
- IC50 [1, 8]: 0.08 µM
- maximal % inhibition of LTCC-mediated calcium flux ([1]; cortical cultures, n = 3): 100%
- Ki ([5]; rat cortical homogenates): > 30 µM
- Ki ([4]; rat cortical homogenates): > 30 µM
- max % inhibition of LTCC currents [2, 9]: full efficacy
- max % inhibition of LTCC currents ([2]; Vhold/Vtest -50/-20 mV, 300 nM Bay K8644, listed as niclosamide): 100%
- IC50 [2, 10]: 0.183 ± 0.0282 µM
- 20–80% rise time ([2]; at -20 mV, in presence of 200 nM compound): 16.1 ± 3.5 ms
- Current remaining after 400 ms of depolarization, % of the peak ([2]; depolarization to -20 mV, 200 nM compound): 41.9 ± 7.5%
- Ki ([6]; rat cortical homogenates): > 30 µM
- inhibition at 0.1 µM [3]: 80.6 ± 4.9%

SMILES: COC(=O)C1=C(C#N)NC(C)=C(C(=O)OC(C)C)C1c1cccc([N+](=O)[O-])c1 (centres unmarked) [Nilvadipine]
- IC50 [1, 8]: 0.028 µM

SMILES: COCCOC(=O)C1=C(C)NC(C)=C(C(=O)OC(C)C)C1c1cccc([N+](=O)[O-])c1 (centres unmarked) [Nimodipine]
- Block of high [K+]-evoked calcium fluorescent response [7]: partially
- Block of high [K+]-evoked calcium fluorescent response ([7]; listed as nimodipine): partially blocked
- IC50 [1, 11]: 0.142 µM
- Block of Bay K8644-evoked calcium fluorescent response ([1]; 1.1 µM Bay K8644, holding [K+] 20 mM): completely
- Block of Bay K8644-evoked calcium fluorescent response ([1]; 1.1 µM Bay K8644, holding [K+] 20 mM, listed as nimodipine): completely blocked
- IC50 [1, 8]: 0.11 µM
- Decrease of potency of inhibition by Bay K ([2]; IC50 with 300 nM Bay K vs without, -50/-20 mV): 16.7 fold
- max % inhibition (fraction of sensitive current) ([2]; Vhold/Vtest -50/0 mV, control (no Bay K)): 85.4 ± 3.7%
- max % inhibition (fraction of sensitive current) ([2]; Vhold/Vtest -50/0 mV, control (no Bay K), listed as nimodipine): 85%
- IC50 ([2]; Vhold/Vtest -50/0 mV, control (no Bay K), read-out: IC50, patch clamp current): 0.0283 ± 0.0065 µM
- max % inhibition of LTCC currents [2, 9]: 99.1 ± 1.1%
- max % inhibition of LTCC currents ([2]; Vhold/Vtest -50/-20 mV, 300 nM Bay K8644, listed as nimodipine): 99%
- IC50 ([2]; Vhold/Vtest -50/-20 mV, 300 nM Bay K8644, listed as nimodipine, read-out: IC50, LTCC currents): 0.415 µM
- IC50 [2, 10]: 0.401 ± 0.0218 µM
- max % inhibition (fraction of sensitive current) ([2]; Vhold/Vtest -50/-20 mV, control (no Bay K)): 96.1 ± 0.8%
- max % inhibition (fraction of sensitive current) ([2]; Vhold/Vtest -50/-20 mV, control (no Bay K), listed as nimodipine): 96%
- IC50 ([2]; Vhold/Vtest -50/-20 mV, control (no Bay K), read-out: IC50, patch clamp current): 0.0248 µM
- max % inhibition (fraction of sensitive current) ([2]; Vhold/Vtest -90/0 mV, control (no Bay K)): 75%
- IC50 ([2]; Vhold/Vtest -90/0 mV, control (no Bay K), read-out: IC50, patch clamp current): 4.8 µM

SMILES: CCOC(=O)C1=C(C)NC(C)=C(C(=O)OC)C1c1cccc([N+](=O)[O-])c1 (centres unmarked) [Nitrendipine]
- IC50 [1, 8]: 0.14 µM
- IC50 ([6]; n = 4, read-out: IC50 positive control, DHP site binding): 0.00019 ± 3e-05 µM

SMILES: COc1ccc([C@@H]2Sc3ccccc3N(CCN(C)C)C(=O)[C@@H]2OC(C)=O)cc1 [diltiazem]
- IC50 [1, 11]: 27.1 µM
- IC50 ([5]; n = 4, read-out: IC50 positive control, benzothiazepine site binding): 0.0427 ± 0.0068 µM

SMILES: CC(NCCC(c1ccccc1)c1ccccc1)c1ccccc1 (centres unmarked) [fendiline]
- IC50 [1, 8]: 0.82 µM

SMILES: O=C1NCN(c2ccccc2)C12CCN(CCCC(c1ccc(F)cc1)c1ccc(F)cc1)CC2 [fluspirilene]
- IC50 [1, 8]: 0.76 µM

SMILES: Cc1cccc(C)c1NC(=O)CN1CCN(CCCC(c2ccc(F)cc2)c2ccc(F)cc2)CC1 [lidoflazine]
- IC50 [1, 8]: 0.71 µM
